The text below walks through data of patent US10000507B2, “Furo- and thieno-pyridine carboxamide compounds useful as pim kinase inhibitors” (Incyte Corporation, priority 2013, dated 2018).

What all share (assay type): biochemical
The target of one test is Pim-1 (Homo sapiens (Human), UniProt P11309). The test can be described thus: Pim-1 kinase assay. Particulars: 1 mM ATP, biotin-labeled BAD peptide substrate; read-out: Pim1 IC50. A digest of the protocol:
(§1)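 Biotin-BAD peptide ([…]) phosphorylated with 1 mM ATP by 2.5 pM Pim-1 or 1.25 pM Pim-3, 1 h at 25 °C in Tris pH 7.5, MgCl2, DTT buffer. EDTA stop with anti-phospho-BAD (Ser112) antibody and AlphaScreen streptavidin donor/Protein-A acceptor beads; signal read after 1 h dark incubation.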

The target in a further test is Pim-2 (Homo sapiens (Human), UniProt Q9P1W9). Put plainly: Pim-2 kinase assay. Particulars: 1 mM ATP, fluorescein-labeled CREBtide peptide substrate; read-out: Pim2 IC50. In short, it runs like this:
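Phosphorylated CREBtide was detected by terbium anti-pSer133 antibody TR-FRET after EDTA quench and 30 min at room temperature. Reactions ran 2 h at 25 °C with 1 mM ATP, 0.05 μM fluorescein-labelled substrate and 1 nM enzyme in pH 7.5 Tris buffer.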

Another test deals with Pim-3 (Homo sapiens (Human), UniProt Q86V86). The test can be described thus: Pim-3 kinase assay. Particulars: 1 mM ATP, biotin-labeled BAD peptide substrate; read-out: Pim3 IC50. In short, it runs like this: as §1

Sequence of Pim-1 (P11309 whole entry): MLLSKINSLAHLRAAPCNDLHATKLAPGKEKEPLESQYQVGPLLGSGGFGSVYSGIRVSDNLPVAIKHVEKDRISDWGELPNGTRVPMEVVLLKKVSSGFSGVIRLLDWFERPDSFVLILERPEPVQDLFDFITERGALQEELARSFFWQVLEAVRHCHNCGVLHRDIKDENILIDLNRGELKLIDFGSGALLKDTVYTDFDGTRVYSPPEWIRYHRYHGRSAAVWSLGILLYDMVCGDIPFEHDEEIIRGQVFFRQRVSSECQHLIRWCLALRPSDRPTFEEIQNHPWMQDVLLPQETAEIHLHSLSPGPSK
Sequence of Pim-2 (Q9P1W9 whole entry): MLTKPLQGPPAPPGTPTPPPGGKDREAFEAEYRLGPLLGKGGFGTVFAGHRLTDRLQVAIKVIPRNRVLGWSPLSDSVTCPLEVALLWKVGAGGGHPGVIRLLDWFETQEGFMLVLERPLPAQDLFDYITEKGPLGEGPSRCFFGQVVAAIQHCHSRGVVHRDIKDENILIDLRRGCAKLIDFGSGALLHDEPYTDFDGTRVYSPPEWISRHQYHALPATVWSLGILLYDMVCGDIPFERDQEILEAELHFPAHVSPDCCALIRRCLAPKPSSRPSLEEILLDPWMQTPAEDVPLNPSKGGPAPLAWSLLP

In the case of `CC(C)c1cnc2c(C(=O)Nc3cnccc3N3C[C@@H](N)[C@@H](n4ccnn4)[C@@H](C)C3)c(N)oc2c1` [Example 102, 2-Amino-N-{4-[(3R,4S,5S)-3-amino-5-methyl-4-(1H-1,2,3-triazol-1-yl)piperidin-1-yl]pyridin-3-yl}-6-isopropylfuro[3,2-b]pyridine-3-carboxamide], the IC50 at Pim-1 is not above 10 nM; on Pim-2 it was 10 to 100 nM; at Pim-3, not above 10 nM.

For `CC(C)Oc1ccnc2c(C(=O)Nc3cnccc3N3CCC[C@H](N)C3)c(N)sc12` [Example 18, 2-Amino-N-{4-[(3S)-3-aminopiperidin-1-yl]pyridin-3-yl}-7-isopropoxythieno[3,2-b]pyridine-3-carboxamide], the IC50 on Pim-1 is more than 40 nM; at Pim-2, more than 1000 nM; at Pim-3, not above 10 nM.

Turning to `Nc1oc2cccnc2c1C(=O)Nc1cnccc1N1C[C@@H](N)[C@H](O)[C@@H](C(F)(F)F)C1` (single isomer, unassigned) [Example 87 (Diastereoisomer 2)], the values for the IC50 on Pim-1, at Pim-2 and at Pim-3 were not above 10 nM, 10 to 100 nM and not above 10 nM, respectively.

With `Nc1sc2cccnc2c1C(=O)Nc1cnsc1N1CCC[C@H](N)C1` [Example 88, 2-Amino-N-{5-[(3S)-3-aminopiperidin-1-yl]isothiazol-4-yl}thieno[3,2-b]pyridine-3-carboxamide], the results for the concentration for half-maximal inhibition (IC50) on Pim-1, on Pim-2 and at Pim-3 were not above 10 nM, 100 to 1000 nM and not above 10 nM, respectively.

For the molecule `CC(C)c1cnc2c(C(=O)Nc3cnccc3N3C[C@@H](N)[C@H](O)[C@@H](C)C3)c(N)oc2c1` [Example 75, 2-Amino-N-{4-[(3R,4R,5S)-3-amino-4-hydroxy-5-methylpiperidin-1-yl]pyridin-3-yl}-6-isopropylfuro[3,2-b]pyridine-3-carboxamide], the IC50 at Pim-1 was not above 10 nM; at Pim-2, 10 to 100 nM; at Pim-3, not above 10 nM.

Regarding `CCOc1ccnc2c(C(=O)Nc3cnccc3N3CCC[C@H](N)C3)c(N)sc12` [Example 20, 2-Amino-N-{4-[(3S)-3-aminopiperidin-1-yl]pyridin-3-yl}-7-ethoxythieno[3,2-b]pyridine-3-carboxamide], the IC50 on Pim-1 was not above 10 nM; at Pim-2, 100 to 1000 nM; at Pim-3, not above 10 nM.

For the molecule `Nc1oc2cc(C(F)(F)F)cnc2c1C(=O)Nc1cnccc1N1CCC[C@H](N)C1` [Example 48, 2-amino-N-{4-[(3S)-3-aminopiperidin-1-yl]pyridin-3-yl}-6-(trifluoromethyl)furo[3,2-b]pyridine-3-carboxamide], the IC50 on Pim-1 was not above 10 nM; at Pim-2, 10 to 100 nM; at Pim-3, not above 10 nM.

Regarding `COCCCc1cnc2c(C(=O)Nc3cnccc3N3C[C@@H](N)C[C@@H](C(F)(F)F)C3)c(N)oc2c1` [Example 131, 2-Amino-N-{4-[(3S,5R)-3-amino-5-(trifluoromethyl)piperidin-1-yl]pyridin-3-yl}-6-(3-methoxypropyl)furo[3,2-b]pyridine-3-carboxamide], the IC50 at Pim-1, on Pim-2 and at Pim-3 was not above 10 nM in each case.

As for `Cn1ncc(NC(=O)c2c(N)sc3cc(F)cnc23)c1N1CCCC(N)CC1` (stereo not drawn) [Example 37, 2-Amino-N-[5-(4-aminoazepan-1-yl)-1-methyl-1H-pyrazol-4-yl]-6-fluoro-thieno[3,2-b]pyridine-3-carboxamide], the IC50 at Pim-1 was not above 10 nM; at Pim-2, 100 to 1000 nM; on Pim-3, not above 10 nM.

As to `C[C@@H]1C[C@H](N)CN(c2ccncc2NC(=O)c2c(N)oc3cc(-c4cncnc4)cnc23)C1` [Example 112, 2-Amino-N-{4-[(3S,5R)-3-amino-5-methylpiperidin-1-yl]pyridin-3-yl}-6-pyrimidin-5-ylfuro[3,2-b]pyridine-3-carboxamide], the IC50 on Pim-1 is not above 10 nM; at Pim-2 it was 10 to 100 nM; at Pim-3, not above 10 nM.

On to `Cn1ncc(NC(=O)c2c(N)sc3cccnc23)c1N1CCCNCC1` [Example 4, 2-Amino-N-[5-(1,4-diazepan-1-yl)-1-methyl-1H-pyrazol-4-yl]thieno[3,2-b]pyridine-3-carboxamide], for which the IC50 at Pim-1 is not above 10 nM; at Pim-2 it was more than 1000 nM; at Pim-3 it was not above 10 nM.

For `CCc1cnc2c(C(=O)Nc3cnn(C)c3N3CCCC(N)CC3)c(N)sc2c1` (stereo not drawn) [Example 23, 2-Amino-N-[5-(4-aminoazepan-1-yl)-1-methyl-1H-pyrazol-4-yl]-6-ethylthieno[3,2-b]pyridine-3-carboxamide], the IC50 on Pim-1 is not above 10 nM; at Pim-2, 10 to 100 nM; on Pim-3 it was not above 10 nM.

Take `Nc1sc2cc(F)cnc2c1C(=O)Nc1cnccc1N1CCC[C@H](N)C1` [Example 36, 2-Amino-N-{4-[(3S)-3-aminopiperidin-1-yl]pyridin-3-yl}-6-fluoro-thieno[3,2-b]pyridine-3-carboxamide]: the IC50 was not above 10 nM at Pim-1, 100 to 1000 nM at Pim-2 and not above 10 nM on Pim-3.

As to `CCc1cnc2c(C(=O)Nc3cnccc3N3C[C@H](C)C[C@H](N)C3)c(N)oc2c1` [Example 117, 2-Amino-N-{4-[(3S,5R)-3-amino-5-methylpiperidin-1-yl]pyridin-3-yl}-6-ethylfuro[3,2-b]pyridine-3-carboxamide], the concentration for half-maximal inhibition (IC50) at Pim-1, at Pim-2 and at Pim-3 was not above 10 nM in each case.

With `CCCc1cnc2c(C(=O)Nc3cnccc3N3C[C@@H](N)[C@H](O)[C@@H](C4CC4)C3)c(N)oc2c1` [Example 82, 2-Amino-N-{4-[(3R,4R,5S)-3-amino-5-cyclopropyl-4-hydroxypiperidin-1-yl]pyridin-3-yl}-6-propylfuro[3,2-b]pyridine-3-carboxamide], the IC50 at Pim-1, on Pim-2 and at Pim-3 was not above 10 nM in each case.

Turning to `CC(C)Oc1ccnc2c(C(=O)Nc3cnn(C)c3N3CCCC(N)CC3)c(N)sc12` (stereo not drawn) [Example 19, 2-Amino-N-[5-(4-aminoazepan-1-yl)-1-methyl-1H-pyrazol-4-yl]-7-isopropoxythieno[3,2-b]pyridine-3-carboxamide], the 50% inhibitory concentration (IC50) at Pim-1 was not above 10 nM; on Pim-2 it was 10 to 100 nM; at Pim-3, not above 10 nM.

Take `Nc1oc2c(Cl)ccnc2c1C(=O)Nc1cnccc1N1CCC[C@H](N)C1` [Example 81, 2-Amino-N-{4-[(3S)-3-aminopiperidin-1-yl]pyridin-3-yl}-7-chloro-furo[3,2-b]pyridine-3-carboxamide]: the IC50 at Pim-1, at Pim-2 and on Pim-3 was not above 10 nM each time.

As to `Nc1oc2cc(C3CC3)cnc2c1C(=O)Nc1cnccc1N1C[C@@H](N)[C@H](O)[C@@H](C2CC2)C1` [Example 128, 2-Amino-N-(4-((3R,4R,5S)-3-amino-5-cyclopropyl-4-hydroxypiperidin-1-yl)pyridin-3-yl)-6-cyclopropylfuro[3,2-b]pyridine-3-carboxamide], the IC50 on Pim-1 is not above 10 nM; at Pim-2, 10 to 100 nM; at Pim-3 it was not above 10 nM.

Turning to `Cc1ccnc2c(C(=O)Nc3cnccc3N3CCC[C@H](N)C3)c(N)oc12` [Example 55, 2-amino-N-{4-[(3S)-3-aminopiperidin-1-yl]pyridin-3-yl}-7-methyl-furo[3,2-b]pyridine-3-carboxamide], the figures for the IC50 on Pim-1, on Pim-2 and at Pim-3 were 10 to 100 nM, more than 2000 nM and not above 10 nM, respectively.
